Earlier results in US4356265A, “Method for the production of antibiotic C-15003 P-3” (priority 1979, dated 1982).
Converted amounts (≈) assume the structure as drawn. Read-outs that look alike come from different tables or passages of the source.

Tests used:
Pseudomonas aeruginosa = details: 0.02 ml of 300-μg/ml solution per disc, Trypticase Soy Agar
[1] = tested on: Helminthosporium sigmoideum var. irregulare; details: IFO 5273, PSA, 48 h; 0.02 ml of 1000 μg/ml
Sclerotinia sclerotiorum = details: IFO 9395, PSA, 90 h; 0.02 ml of 1000 μg/ml
Serratia, marcescens = details: 0.02 ml of 300-μg/ml solution per disc, Trypticase Soy Agar
Alternaria kikuchiana = details: IFO 7515, PSA, 48 h; 0.02 ml of 1000 μg/ml
Pythium aphanidermatam = details: IFO 7030, PSA, 48 h; 0.02 ml of 1000 μg/ml
[2] = tested on: Trichophyton mentagrophytes; details: IFO 7522, GB, 48 h; 0.02 ml of 1000 μg/ml
Candida utilis = details: IFO 0619, GB, 48 h; 0.02 ml of 1000 μg/ml
Proteus vulgaris = details: 0.02 ml of 300-μg/ml solution per disc, Trypticase Soy Agar
Penicillium chrysogenum = details: IFO 4626, PSA, 48 h; 0.02 ml of 1000 μg/ml
Elsinoe fawcetti = details: IFO 8417, PSA, 90 h; 0.02 ml of 1000 μg/ml
Cochlioborus miyabeanus = details: IFO 5277, PSA, 48 h; 0.02 ml of 1000 μg/ml
Bacillus cereus = details: 0.02 ml of 300-μg/ml solution per disc, Trypticase Soy Agar
Rhizopus nigricans = details: IFO 6188, PSA, 48 h; 0.02 ml of 1000 μg/ml
Diaporthe citri = details: IFO 9170, PSA, 48 h; 0.02 ml of 1000 μg/ml
Bacillus subtilis = details: 0.02 ml of 300-μg/ml solution per disc, Trypticase Soy Agar
Klebsiella pneumoniae = details: 0.02 ml of 300-μg/ml solution per disc, Trypticase Soy Agar
Proteus mirabilis = details: 0.02 ml of 300-μg/ml solution per disc, Trypticase Soy Agar
Escherichia coli = details: 0.02 ml of 300-μg/ml solution per disc, Trypticase Soy Agar
Venturia pirina = details: IFO 6189, PAA, 48 h; 0.02 ml of 1000 μg/ml
Rhodotorula rubra = details: IFO 0907, PSA, 48 h; 0.02 ml of 1000 μg/ml
Trichophyton rubrum = details: IFO 5467, GB, 48 h; 0.02 ml of 1000 μg/ml
Botrytis cinerea = details: PSA, 48 h; 0.02 ml of 1000 μg/ml
Talaromyces avellaneus = details: agar plate, pH 7.0
mice = details: intraperitoneal injection
Staphylococcus aureus = details: 0.02 ml of 300-μg/ml solution per disc, Trypticase Soy Agar
Mycobacterium avium = details: 0.02 ml of 300-μg/ml solution per disc, Trypticase Soy Agar
Saccharomyces cerevisiae = details: IFO 0209, PSA, 48 h; 0.02 ml of 1000 μg/ml
Gibberella zeae = details: IFO 8850, PSA, 48 h; 0.02 ml of 1000 μg/ml
Aspergillus niger = details: IFO 4066, PSA, 48 h; 0.02 ml of 1000 μg/ml
Fusicladium levieri = details: IFO 6477, PSA, 90 h; 0.02 ml of 1000 μg/ml
Pellicularia sasakii = details: IFO 9253, PSA, 48 h; 0.02 ml of 1000 μg/ml
Candida albicans = details: IFO 0583, GB, 48 h; 0.02 ml of 1000 μg/ml
Guignardia laricina = details: IFO 7888, PSA, 48 h; 0.02 ml of 1000 μg/ml
Cryptococcus neoformans = details: IFO 0410, GB, 48 h; 0.02 ml of 1000 μg/ml
Pyricularia oryzae = details: PSA, 48 h; 0.02 ml of 1000 μg/ml
P388 leukemia cells = details: 0.00625 mg/kg/day, intraperitoneally, 9 consecutive days; 1×10^6 cells/animal i.p.
[3] = tested on: Fusarium oxysporum f. cucumerinum; details: PSA, 48 h; 0.02 ml of 1000 μg/ml
Tetrahymena pyriformis W = details: pH 7.0, 28° C., 44 to 48 hours

## COc1cc2cc(c1Cl)N(C)C(=O)CC(OC(=O)C(C)C)C1(C)OC1C(C)C1CC(O)(NC(=O)O1)C(OC)C=CC=C(C)C2 (stereo not shown) [Antibiotic C-15003 P-3]
Pseudomonas aeruginosa
  antibacterial activity: no activity
[1]
  Inhibition diameter: 55 mm
Sclerotinia sclerotiorum
  Inhibition diameter: 65 mm
Serratia, marcescens
  antibacterial activity: no activity
Alternaria kikuchiana
  Inhibition diameter: 38 mm
Pythium aphanidermatam
  Inhibition diameter: 58 mm
[2]
  Inhibition diameter: 38 mm
Candida utilis
  Inhibition diameter: 0 mm
Proteus vulgaris
  antibacterial activity: no activity
Penicillium chrysogenum
  Inhibition diameter: 35 mm
Elsinoe fawcetti
  Inhibition diameter: 55 mm
Cochlioborus miyabeanus
  Inhibition diameter: 60 mm
Bacillus cereus
  antibacterial activity: no activity
Rhizopus nigricans
  Inhibition diameter: 25 mm
Diaporthe citri
  Inhibition diameter: 55 mm
Bacillus subtilis
  antibacterial activity: no activity
Klebsiella pneumoniae
  antibacterial activity: no activity
Proteus mirabilis
  antibacterial activity: no activity
Escherichia coli
  antibacterial activity: no activity
Venturia pirina
  Inhibition diameter: 50 mm
Rhodotorula rubra
  Inhibition diameter: 28 mm
Trichophyton rubrum
  Inhibition diameter: 38 mm
Botrytis cinerea
  Inhibition diameter: 48 mm
Talaromyces avellaneus
  minimal inhibitory concentration: 3 µg/mL (≈ 4.72 µM)
mice
  LD0: 0.313 mg/kg
  LD100: 0.625 mg/kg
Staphylococcus aureus
  antibacterial activity: no activity
In benzene, ether
  Solubility: Sparingly soluble
In chloroform, ethyl acetate, acetone, ethanol, methanol, pyridine, tetrahydrofuran, dimethylsulfoxide
  Solubility: Soluble
In petroleum ether, n-hexane, water
  Solubility: Insoluble
Mycobacterium avium
  antibacterial activity: no activity
Saccharomyces cerevisiae
  Inhibition diameter: 0 mm
Gibberella zeae
  Inhibition diameter: 37 mm
Aspergillus niger
  Inhibition diameter: 0 mm
Fusicladium levieri
  Inhibition diameter: 68 mm
Pellicularia sasakii
  Inhibition diameter: 50 mm
Candida albicans
  Inhibition diameter: 0 mm
Guignardia laricina
  Inhibition diameter: 12 mm
Cryptococcus neoformans
  Inhibition diameter: 43 mm
Pyricularia oryzae
  Inhibition diameter: 53 mm
P388 leukemia cells
  life-span-extending ratio: 200%
[3]
  Inhibition diameter: 20 mm
Tetrahymena pyriformis W
  growth inhibition (concentration at which it occurs): 1 µg/mL
